Results on 2 compounds are retold here after US20110189169A1, “COMBINATION OF HGF INHIBITOR AND PTEN AGONIST TO TREAT CANCER” (GALAXY BIOTECH, LLC, priority 2008, published 2011).

The test system of one data set is U-87 MG cells. The experiment in a line: Subcutaneous human glioblastoma U-87 MG tumor xenograft model. The class given is in vivo, athymic nude mice (BALB/c-nu/nu). The following applies: HuL2G7 0.5 mg/kg i.v. days 12 and 18. The procedure: The combination effect of HuL2G7 with Rapamycin was examined in human glioblastoma U-87 MG tumor xenograft model. Female athymic nude mice (BALB/c-nu/nu, 30 animals) were purchased from Charles River Laboratories (Kanagawa, Japan). Mice were housed in a barrier facility with 12-h light/dark cycles and provided with food and tap water ad libitum and maintained for three weeks. U-87 MG cells (2.5×10^6 in 100 μL) were suspended with 50% Matrigel (BD Biosciences) buffered with Hanks. balanced salt solution (Invitrogen Corp, Carlsbad, Calif., USA) and inoculated subcutaneously into the right-flank of each mouse. After the tumor xenografts were established, at day 12 after inoculation, mice with tumors (approximately 95-272 mm^3) were randomized into groups of 4 (n=6) based on tumor volumes so as to minimize variation in tumor volumes. Then each group was treated with vehicle, HuL2G7, Rapamycin, or both drugs. […] Tumor volumes were assessed by bilateral vernier caliper measurement at days 12, 15, 18, 22, and 26 after inoculation and calculated using the formula, length×width^2×½, where length was taken to be the longest diameter across the tumor and width the corresponding perpendicular. Tumor growth was evaluated by the following formula: T/C (%)=ΔT/ΔC×100, where ΔT and ΔC are changes in tumor volume for each treated and vehicle control group. […]

In the next data set the target is cMet receptor (Homo sapiens, UniProt P08581). The following applies: read-out: Kd, high affinity binding site; cited from earlier work.
Sequence of cMet receptor (P08581 25-1390): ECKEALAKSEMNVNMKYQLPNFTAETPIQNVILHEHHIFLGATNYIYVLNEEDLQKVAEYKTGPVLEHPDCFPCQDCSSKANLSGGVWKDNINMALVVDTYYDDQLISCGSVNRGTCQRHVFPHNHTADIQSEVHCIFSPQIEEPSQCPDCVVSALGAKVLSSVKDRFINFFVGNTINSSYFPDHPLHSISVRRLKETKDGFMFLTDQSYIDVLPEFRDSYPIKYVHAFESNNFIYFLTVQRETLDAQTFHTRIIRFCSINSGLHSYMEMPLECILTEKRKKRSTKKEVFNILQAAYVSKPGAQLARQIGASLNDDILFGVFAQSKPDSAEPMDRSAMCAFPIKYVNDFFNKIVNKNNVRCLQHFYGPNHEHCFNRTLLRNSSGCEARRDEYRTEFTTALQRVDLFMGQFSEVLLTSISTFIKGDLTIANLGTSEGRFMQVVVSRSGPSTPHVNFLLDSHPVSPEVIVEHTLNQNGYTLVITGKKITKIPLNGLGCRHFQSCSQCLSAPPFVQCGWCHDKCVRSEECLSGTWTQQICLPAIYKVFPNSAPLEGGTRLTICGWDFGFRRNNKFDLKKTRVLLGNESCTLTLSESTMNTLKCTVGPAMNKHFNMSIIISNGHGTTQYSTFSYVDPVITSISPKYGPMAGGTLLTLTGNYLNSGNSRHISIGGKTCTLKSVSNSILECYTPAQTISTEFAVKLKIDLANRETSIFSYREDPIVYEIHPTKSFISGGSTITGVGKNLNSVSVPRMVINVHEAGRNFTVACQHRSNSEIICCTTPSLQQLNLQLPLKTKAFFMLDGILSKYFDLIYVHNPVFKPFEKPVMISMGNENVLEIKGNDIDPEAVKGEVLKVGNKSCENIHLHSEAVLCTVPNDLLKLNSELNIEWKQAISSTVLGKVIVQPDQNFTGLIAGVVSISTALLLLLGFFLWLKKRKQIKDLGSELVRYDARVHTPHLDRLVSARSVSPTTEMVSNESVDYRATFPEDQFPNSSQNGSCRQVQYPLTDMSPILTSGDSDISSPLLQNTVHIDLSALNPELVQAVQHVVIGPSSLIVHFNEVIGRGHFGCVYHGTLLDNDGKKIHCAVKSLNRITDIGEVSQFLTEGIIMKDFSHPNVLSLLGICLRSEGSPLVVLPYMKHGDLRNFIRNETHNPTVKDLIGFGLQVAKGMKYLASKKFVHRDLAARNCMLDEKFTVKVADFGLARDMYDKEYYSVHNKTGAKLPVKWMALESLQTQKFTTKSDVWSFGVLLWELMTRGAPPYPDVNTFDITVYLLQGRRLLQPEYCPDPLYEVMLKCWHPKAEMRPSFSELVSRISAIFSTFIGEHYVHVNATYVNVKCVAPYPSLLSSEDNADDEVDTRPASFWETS
The target of data set [1] is heparin sulfate proteoglycans (HSPG). The following applies: read-out: Kd, low affinity binding site; cited from earlier work.

What is called Kd is the constant that tells how readily two partners part at equilibrium.

For `CO[C@H]1C[C@@H]2CC[C@@H](C)[C@@](O)(O2)C(=O)C(=O)N2CCCC[C@H]2C(=O)O[C@H]([C@H](C)C[C@@H]2CC[C@@H](O)[C@H](OC)C2)CC(=O)[C@H](C)/C=C(\C)[C@@H](O)[C@@H](OC)C(=O)[C@H](C)C[C@H](C)/C=C/C=C/C=C/1C` [rapamycin, reference compound], the “general observations of animals” value with U-87 MG cells (Rapamycin 0.1 mg/kg i.p. days 12-26, or both) is “no abnormalities in general observations”. In addition, the “T/C (%)=ΔT/ΔC×100” value with U-87 MG cells (day 26, Rapamycin 0.1 mg/kg i.p. once-daily days 12-26) turned out to be 9.6%.
On to “HGF: Human Hepatocyte Growth Factor, 102 kDa heterodimeric polypeptide, ligand of cMet”, for which the dissociation constant Kd is 0.2 nM with cMet receptor and 1 nM in data set [1].
